# Data from patent US11142526B2, “Spirocycle compounds and methods of making and using same” (H. Lundbeck A/S, priority 2017, dated 2021).
# pIC50: −log10 of the molar value. Where two headings read alike, the source gives them in different places.
# Tests used:
# MAGL [1] = biological target: T1, MAGL (Mus musculus (Mouse), UniProt O35678); assay: In vitro competitive activity-based protein profiling, mouse brain proteome; format: biochemical; conditions: for inhibition at 1 µM: mouse; for pIC50: mouse brain
# MAGL [2] = biological target: T1, MAGL; assay: Mouse brain proteomes from inhibitor treated mice (oral gavage, brain MAGL activity 4 h after administration); format: in vivo; conditions: 5 mg/kg oral gavage
# Protocol: Preparation of Mouse Brain Proteomes from Inhibitor Treated Mice.
# Inhibitors were administered to wild-type C57B1/6J by oral gavage in a vehicle of polyethylene glycol.
# MAGL [3] = biological target: MAGL (Homo sapiens (Human), UniProt Q99685); assay: In vitro competitive activity-based protein profiling (gel-based, FP-Rh or HT-01 probe); format: biochemical; conditions: for pIC50: read-out: MAGL Human PC3 (IC50)
# Protocol: In Vitro Competitive Activity-Based Protein Profiling.
# Proteomes (human prefrontal cortex or cell membrane fractions) (50 μL, 1.0 mg/mL total protein concentration) were preincubated with varying concentrations of inhibitors at 37° C. After 30 min, FP-Rh or HT-01 (1.0 μL, 50 μM in DMSO) was added and the mixture was incubated for another 30 min at room temperature. Reactions were quenched with SDS loading buffer (15 μL—4×) and run on SDS-PAGE.
# [4] = human PFC (prefrontal cortex), read-out: MAGL % Inhibition at 1 μM (human PFC)
# [5] = human PC3, read-out: MAGL % Inhibition at 1 μM (human PC3)
# Chain of MAGL (Homo sapiens (Human), UniProt Q99685) (Q99685 whole entry): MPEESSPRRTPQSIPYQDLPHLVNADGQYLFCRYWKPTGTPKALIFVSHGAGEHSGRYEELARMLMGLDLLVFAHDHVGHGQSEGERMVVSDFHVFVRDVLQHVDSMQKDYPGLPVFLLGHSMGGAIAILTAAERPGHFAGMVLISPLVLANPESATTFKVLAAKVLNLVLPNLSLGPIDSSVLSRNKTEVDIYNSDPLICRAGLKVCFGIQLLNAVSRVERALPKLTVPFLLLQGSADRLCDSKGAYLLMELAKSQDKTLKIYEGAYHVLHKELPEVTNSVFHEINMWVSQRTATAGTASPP
# T1 sequence (O35678 whole entry): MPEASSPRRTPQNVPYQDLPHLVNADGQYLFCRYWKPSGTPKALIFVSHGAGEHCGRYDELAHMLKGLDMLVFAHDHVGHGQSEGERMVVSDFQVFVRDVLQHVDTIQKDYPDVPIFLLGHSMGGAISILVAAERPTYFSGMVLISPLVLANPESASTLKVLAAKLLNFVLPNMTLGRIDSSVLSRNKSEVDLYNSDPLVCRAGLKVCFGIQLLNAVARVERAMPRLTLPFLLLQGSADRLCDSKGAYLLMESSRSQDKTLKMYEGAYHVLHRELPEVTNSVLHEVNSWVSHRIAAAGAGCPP
inhibition at 1 µM (MAGL [1]) [%],pIC50 (MAGL [1]),inhibition at 1 µM (MAGL [3]; [4]) [%],pIC50 (MAGL [3]; human PC3),inhibition at 1 µM (MAGL [3]; [5]) [%],Structure (SMILES),MAGL % Inhibition at 5 mg/kg (Mouse) (MAGL [2])
> 75,> 7.00,,,,"Cc1c(C(=O)N2CCCC23CCN(C(=O)OC(C(F)(F)F)C(F)(F)F)CC3)[nH]c2ccc(Cl)cc12 [Example 109, 1,1,1,3,3,3-Hexafluoropropan-2-yl 1-(5-chloro-3-methyl-1H-indole-2-carbonyl)-1,8-diazaspiro[4.5] decane-8-carboxylate]",### (% inhibition is greater than or equal to 75%)
> 75,> 7.00,,,,"CC(C)n1cc(CN2CCC3(CCN(C(=O)OC(C(F)(F)F)C(F)(F)F)CC3)C2)c(-c2cccc(Cl)c2)n1 [Example 218, 1,1,1,3,3,3-Hexafluoropropan-2-yl 2-((3-(3-chlorophenyl)-1-isopropyl-1H-pyrazol-4-yl)methyl)-2,8-diazaspiro[4.5]decane-8-carboxylate]",### (% inhibition is greater than or equal to 75%)
> 75,,> 75,> 7.00,,"Cn1cc(Cl)c(CN2CCCC23CCN(C(=O)OC(C(F)(F)F)C(F)(F)F)CC3)n1 [Example 133, 1,1,1,3,3.3-Hexafluoropropan-2-yl 1-((4-chloro-1-methyl-1H-pyrazol-3-yl)methyl)-1,8-diazaspiro[4.5] decane-8-carboxylate]",
> 75,,> 75,> 7.00,,"O=C(OC(C(F)(F)F)C(F)(F)F)N1CCC2(CCCN2C(=O)c2c(C(F)(F)F)nc3n2CCCC3)CC1 [Example 139, 1,1,1,3,3,3-Hexafluoropropan-2-yl 1-(2-(trifluoromethyl)-5,6,7,8-tetrahydroimidazo [1,2-a]pyridine-3-carbonyl)-1,8-diazaspiro[4.5] decane-8-carboxylate]",
> 75,,> 75,,> 75,"COCCN(C(=O)C1(c2ncccn2)CC1)C1(C)CCN(C(=O)OC(C(F)(F)F)C(F)(F)F)CC1 [Example 212, 1,1,1,3,3,3-hexafluoropropan-2-yl 4-(N-(2-methoxyethyl)-1-(pyrimidin-2-yl)cyclopropane-1-carboxamido)-4-methylpiperidine-1-carboxylate]",
> 75,,,> 7.00,> 75,"CCC(C)(C)C(=O)N1CCn2cc(C(=O)NC3(C)CCN(C(=O)OC(C(F)(F)F)C(F)(F)F)CC3)nc2C1 [Example 193, 1,1,1,3,3,3-Hexafluoropropan-2-yl 4-(7-(2,2-dimethylbutanoyl)-5,6,7,8-tetrahydroimidazo[1,2-a]pyrazine-2-carboxamido)-4-methylpiperidine-1-carboxylate]",
> 75,,> 75,,> 75,"CN(C(=O)C(F)(F)c1cnccn1)C1(C)CCN(C(=O)OC(C(F)(F)F)C(F)(F)F)CC1 [Example 198, 1,1,1,3,3,3-Hexafluoropropan-2-yl 4-(2,2-difluoro-N-methyl-2-(pyrazin-2-yl)acetamido)-4-methylpiperidine-1-carboxylate]",
> 75,,> 75,> 7.00,> 75,"O=C(OC(C(F)(F)F)C(F)(F)F)N1CCC2(CCCN2C(=O)c2cc3n(n2)CCN(CC2CC2)C3)CC1 [Example 156, 1,1,1,3,3,3-Hexafluoropropan-2-yl 1-(5-(cyclopropylmethyl)-4,5,6,7-tetrahydropyrazolo [1,5-a]pyrazine-2-carbonyl)-1,8-diazaspiro[4.5] decane-8-carboxylate]",

# Second part, the molecule before the results:
Structure (SMILES),inhibition at 1 µM (MAGL [1]) [%],pIC50 (MAGL [1]),inhibition at 1 µM (MAGL [3]; [4]) [%],pIC50 (MAGL [3]; human PC3),inhibition at 1 µM (MAGL [3]; [5]) [%],MAGL % Inhibition at 5 mg/kg (Mouse) (MAGL [2])
"O=C(OC(C(F)(F)F)C(F)(F)F)N1CCC2(CCCN2C(=O)c2cc3cc(Cl)cc(Cl)c3[nH]2)CC1 [Example 16, 1,1,1,3,3,3-Hexafluoropropan-2-yl 1-(5,7-dichloro-1H-indole-2-carbonyl)-1,8-diazaspiro[4.5]decane-8-carboxylate]",> 75,> 7.00,,,,### (% inhibition is greater than or equal to 75%)
"COc1ccc(-c2cc(CN3CCCC34CCN(C(=O)OC(C(F)(F)F)C(F)(F)F)CC4)no2)cc1 [Example 46, 1,1,1,3,3,3-Hexafluoropropan-2-yl 1-((5-(4-methoxyphenyl)isoxazol-3-yl)methyl)-1,8-diazaspiro[4.5] decane-8-carboxylate]",,> 7.00,,,,## (% inhibition is less than 75% and greater than 25%)
"O=C(OC(C(F)(F)F)C(F)(F)F)N1CCC2(CCN(Cc3cc4cc(Cl)ccc4s3)C2)CC1 [Example 51, 1,1,1,3,3,3-Hexafluoropropan-2-yl 2-((5-chlorobenzo[b]thiophen-2-yl)methyl)-2,8-diazaspiro[4.5] decane-8-carboxylate]",> 75,> 7.00,,,,### (% inhibition is greater than or equal to 75%)
"O=C(OC(C(F)(F)F)C(F)(F)F)N1CCC2(CCCN2Cc2cc3cc(C(F)(F)F)ccc3s2)CC1 [Example 41, 1,1,1,3,3,3-Hexafluoropropan-2-yl 1-((5-(trifluoromethyl)benzo[b]thiophen-2-yl)methyl)-1,8-diazaspiro[4.5] decane-8-carboxylate]",> 75,> 7.00,,,,### (% inhibition is greater than or equal to 75%)
"O=C(OC(C(F)(F)F)C(F)(F)F)N1CCC2(CCCN2C(=O)c2cc3cccc(Cl)c3s2)CC1 [Example 105, 1,1,1,3,3,3-Hexafluoropropan-2-yl 1-(7-chlorobenzo[b]thiophene-2-carbonyl)-1,8-diazaspiro[4.5] decane-8-carboxylate]",> 75,> 7.00,,,,### (% inhibition is greater than or equal to 75%)
"O=C(OC(C(F)(F)F)C(F)(F)F)N1CCC2(CCCN2C(=O)c2cc3ccc(C(F)(F)F)cc3s2)CC1 [Example 101, 1,1,1,3,3,3-Hexafluoropropan-2-yl 1-(6-(trifluoromethyl)benzo[b]thiophene-2-carbonyl)-1,8-diazaspiro[4.5] decane-8-carboxylate]",> 75,> 7.00,,,,### (% inhibition is greater than or equal to 75%)
"O=C(OC(C(F)(F)F)C(F)(F)F)N1CCC2(CCCN2C(=O)c2ccc3ocnc3c2)CC1 [Example 87, 1,1,1,3,3.3-Hexafluoropropan-2-yl 1-(benzo[d]oxazole-5-carbonyl)-1,8-diazaspiro[4.5] decane-8-carboxylate]",> 75,> 7.00,,> 7.00,,
"[2H]C1(N2CCn3cc(C(=O)N(C)C4(C)CCN(C(=O)OC(C(F)(F)F)C(F)(F)F)CC4)nc3C2)CC1 [Example 25, 1,1,1,3,3,3-hexafluoropropan-2-yl 4-(7-(cyclopropyl-1-d)-N-methyl-5,6,7,8-tetrahydroimidazo[1,2-a]pyrazine-2-carboxamido)-4-methylpiperidine-1-carboxylate]",> 75,,,> 7.00,> 75,
"CN(C(=O)c1cn2c(n1)CN(C1CCC1)CC2)C1(C)CCN(C(=O)OC(C(F)(F)F)C(F)(F)F)CC1 [Example 23, 1,1,1,3,3,3-Hexafluoropropan-2-yl 4-(7-cyclobutyl-N-methyl-5,6,7,8-tetrahydroimidazo[1,2-a]pyrazine-2-carboxamido)-4-methylpiperidine-1-carboxylate]",> 75,,> 75,> 7.00,> 75,
